target: T1, TBK1 (Homo sapiens, UniProt Q9UHD2); experiment: ADP-Glo Kinase Assay, inhibition activity on TBK1; format: biochemical
T1 construct: purchased Promega (Invitrogen is also named in the same bracket) V4158; PR8031B; V3991 (not assigned to the two kinases)
T1 sequence (Q9UHD2 1-729): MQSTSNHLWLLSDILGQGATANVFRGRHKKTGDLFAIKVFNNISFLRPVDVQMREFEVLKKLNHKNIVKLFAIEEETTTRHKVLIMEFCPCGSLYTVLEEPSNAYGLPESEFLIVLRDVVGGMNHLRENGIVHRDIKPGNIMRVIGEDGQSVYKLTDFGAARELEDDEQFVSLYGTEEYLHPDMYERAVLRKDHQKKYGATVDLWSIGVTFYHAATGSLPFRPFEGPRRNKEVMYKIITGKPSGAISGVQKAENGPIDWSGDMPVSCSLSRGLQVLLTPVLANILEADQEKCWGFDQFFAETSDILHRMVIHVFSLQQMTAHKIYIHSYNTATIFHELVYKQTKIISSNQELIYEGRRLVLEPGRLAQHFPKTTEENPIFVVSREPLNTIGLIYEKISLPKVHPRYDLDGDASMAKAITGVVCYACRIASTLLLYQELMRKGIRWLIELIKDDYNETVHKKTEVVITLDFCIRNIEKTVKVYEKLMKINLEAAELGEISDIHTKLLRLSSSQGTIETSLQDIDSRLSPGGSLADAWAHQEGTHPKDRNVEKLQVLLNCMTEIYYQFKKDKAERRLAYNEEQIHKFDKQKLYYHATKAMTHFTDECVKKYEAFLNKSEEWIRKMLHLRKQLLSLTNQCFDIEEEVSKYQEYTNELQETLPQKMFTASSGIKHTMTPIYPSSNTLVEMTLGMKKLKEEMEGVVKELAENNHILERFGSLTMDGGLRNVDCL
Method: Inhibition activities on IKKϵ and TBK1 were evaluated using the compounds of Examples 1 to 250.
The inhibition activities on IKKϵ and TBK1 were measured by a luminometer, IKKϵ/TBK1 Kinase Enzyme System (Promega, Ca# V4158; Invitrogen, PR8031B, Promega, Ca# V3991) and ADP-Glo Kinase Assay using ADP-Glo™ Kinase Analysis Kit (Promega, Ca# V9101) and a kinase reaction buffer [40 mM Tris(pH 7.5), 20 mM MgCl2, 0.1 mg/mL BSA] in accordance with the manufacturer's protocol.

In order of rising IC50:
1. CN1CCN(Cc2ccc(-c3cnc4[nH]cc(C5=CCN(C(=O)NC6CCCC6)CC5)c4c3)s2)CC1 [Example 71, N-cyclopentyl-4-(5-(5-((4-methylpiperazin-1-yl)methyl)thiophen-2-yl)-1H-pyrrolo[2,3-b]pyridin-3-yl)-5,6-dihydropyridine-1(2H)-carboxamide]  5 nM
2. CN1CCN(Cc2ccc(-c3cnc4[nH]cc(C5=CCN(C(=O)NC6CCOC6)CC5)c4c3)s2)CC1 (centres unmarked) [Example 83, 4-(5-(5-((4-Methylpiperazin-1-yl)methyl)thiophen-2-yl)-1H-pyrrolo[2,3-b]pyridin-3-yl)-N-(tetrahydrofuran-3-yl)-5,6-dihydropyridine-1(2H)-carboxamide]  13 nM
3. O=C(NC1CCOC1)N1CC=C(c2c[nH]c3ncc(-c4ccc(CN5CCOCC5)s4)cc23)CC1 (centres unmarked) [Example 84, 4-(5-(5-(Morpholinomethyl)thiophen-2-yl)-1H-pyrrolo[2,3-b]pyridin-3-yl)-N-(tetrahydrofuran-3-yl)-5,6-dihydropyridine-1(2H)-carboxamide]  16 nM
4. COc1ccc(-c2cnc3[nH]cc(C4=CCN(C(=O)NC5CCOC5)CC4)c3c2)cc1OC (centres unmarked) [Example 81, 4-(5-(3,4-Dimethoxyphenyl)-1H-pyrrolo[2,3-b]pyridin-3-yl)-N-(tetrahydrofuran-3-yl)-5,6-dihydropyridine-1(2H)-carboxamide]  21 nM
5. O=C(NC1CCCC1)N1CC=C(c2c[nH]c3ncc(-c4ccc(C(=O)N5CCOCC5)cc4)cc23)CC1 [Example 75, N-cyclopentyl-4-(5-(4-(morpholine-4-carbonyl)phenyl)-1H-pyrrolo[2,3-b]pyridin-3-yl)-5,6-dihydropyridine-1(2H)-carboxamide]  25 nM
6. CS(=O)(=O)c1ccc(-c2cnc3[nH]cc(C4=CCN(C(=O)NC5CCOC5)CC4)c3c2)cc1 (centres unmarked) [Example 82, 4-(5-(4-(Methylsulfonyl)phenyl)-1H-pyrrolo[2,3-b]pyridin-3-yl)-N-(tetrahydrofuran-3-yl)-5,6-dihydropyridine-1(2H)-carboxamide]  35 nM
7. CC1CN(C(=O)NC2CCCC2)CC=C1c1c[nH]c2ncc(-c3ccc(S(N)(=O)=O)cc3)cc12 (centres unmarked) [Example 124, N-cyclopentyl-5-methyl-4-(5-(4-sulfamoylphenyl)-1H-pyrrolo[2,3-b]pyridin-3-yl)-5,6-dihydropyridine-1(2H)-carboxamide]  51 nM
8. O=C(NC1CCCC1)N1CC=C(c2c[nH]c3ncc(-c4ccc(C(=O)N5CCOCC5)s4)cc23)CC1 [Example 74, N-cyclopentyl-4-(5-(5-(morpholine-4-carbonyl)thiophen-2-yl)-1H-pyrrolo[2,3-b]pyridin-3-yl)-5,6-dihydropyridine-1(2H)-carboxamide]  53 nM
9. O=C(NC1CCCC1)N1CC=C(c2c[nH]c3ncc(-c4cccc(OCCN5CCOCC5)c4)cc23)CC1 [Example 68, N-cyclopentyl-4-(5-(3-(2-morpholinoethoxy)phenyl)-1H-pyrrolo[2,3-b]pyridin-3-yl)-5,6-dihydropyridine-1(2H)-carboxamide]  64 nM
10. O=C(NC1CCCC1)N1CC=C(c2c[nH]c3ncc(-c4ccc(OCCN5CCOCC5)cc4)cc23)CC1 [Example 69, N-cyclopentyl-4-(5-(4-(2-morpholinoethoxy)phenyl)-1H-pyrrolo[2,3-b]pyridin-3-yl)-5,6-dihydropyridine-1(2H)-carboxamide]  65 nM
11. CCC1CN(C(=O)NC2CCCC2)CC=C1c1c[nH]c2ncc(-c3ccc(CN4CCOCC4)s3)cc12 (centres unmarked) [Example 128, N-cyclopentyl-5-ethyl-4-(5-(5-(morpholinomethyl)thiophen-2-yl)-1H-pyrrolo[2,3-b]pyridin-3-yl)-5,6-dihydropyridine-1(2H)-carboxamide]  71 nM
12. COc1ccc(-c2cnc3[nH]cc(C4=CCN(C(=O)NC5CCCC5)CC4C)c3c2)cc1OC (centres unmarked) [Example 120, N-cyclopentyl-4-(5-(3,4-dimethoxyphenyl)-1H-pyrrolo[2,3-b]pyridin-3-yl)-5-methyl-5,6-dihydropyridine-1(2H)-carboxamide]  84 nM
13. COc1ccc(-c2cnc3[nH]cc(C4=CCN(C(=O)NN5CCCC5)CC4)c3c2)cc1OC [Example 85, 4-(5-(3,4-Dimethoxyphenyl)-1H-pyrrolo[2,3-b]pyridin-3-yl)-N-(pyrrolidin-1-yl)-5,6-dihydropyridine-1(2H)-carboxamide 2,2,2-trifluoroacetate]  110 nM
14. CC1=C(c2c[nH]c3ncc(-c4ccc(CN5CCOCC5)s4)cc23)CCN(C(=O)NC2CCCC2)C1 [Example 131, N-cyclopentyl-3-methyl-4-(5-(5-(morpholinomethyl)thiophen-2-yl)-1H-pyrrolo[2,3-b]pyridin-3-yl)-5,6-dihydropyridine-1(2H)-carboxamide]  220 nM
15. COc1ccc(-c2cnc3[nH]cc(C4=C(F)CN(C(=O)NC5CCCC5)CC4)c3c2)cc1OC [Example 133, N-cyclopentyl-4-(5-(3,4-dimethoxyphenyl)-1H-pyrrolo[2,3-b]pyridin-3-yl)-3-fluoro-5,6-dihydropyridine-1(2H)-carboxamide]  220 nM
16. COc1ccc(-c2cnc3[nH]cc(C4=C(C)CN(C(=O)NC5CCCC5)CC4)c3c2)cc1OC [Example 129, N-cyclopentyl-4-(5-(3,4-dimethoxyphenyl)-1H-pyrrolo[2,3-b]pyridin-3-yl)-3-methyl-5,6-dihydropyridine-1(2H)-carboxamide]  240 nM
17. O=C(NCc1ccco1)c1ccc(-c2cnc3[nH]cc(C4=CCN(C(=O)NC5CCCC5)CC4)c3c2)cc1 [Example 66, N-cyclopentyl-4-(5-(4-((furan-2-ylmethyl)carbamoyl)phenyl)-1H-pyrrolo[2,3-b]pyridin-3-yl)-5,6-dihydropyridine-1(2H)-carboxamide]  250 nM
18. O=C(NC1CCCC1)N1CC=C(c2c[nH]c3ncc(-c4cc(Cl)cc(C(=O)N5CCOCC5)c4)cc23)CC1 [Example 77, 4-(5-(3-Chloro-5-(morpholine-4-carbonyl)phenyl)-1H-pyrrolo[2,3-b]pyridin-3-yl)-N-cyclopentyl-3,6-dihydropyridine-1(2H)-carboxamide 2,2,2-trifluoroacetate]  250 nM
19. CS(=O)(=O)c1ccc(-c2cnc3[nH]cc(C4=C(F)CN(C(=O)NC5CCCC5)CC4)c3c2)cc1 [Example 132, N-cyclopentyl-3-fluoro-4-(5-(4-(methylsulfonyl)phenyl)-1H-pyrrolo[2,3-b]pyridin-3-yl)-5,6-dihydropyridine-1(2H)-carboxamide]  250 nM
20. O=C(NC1CCCC1)N1CC=C(c2c[nH]c3ncc(-c4ccc(Cl)c(C(=O)N5CCOCC5)c4)cc23)CC1 [Example 76, 4-(5-(4-Chloro-3-(morpholine-4-carbonyl)phenyl)-1H-pyrrolo[2,3-b]pyridin-3-yl)-N-cyclopentyl-3,6-dihydropyridine-1(2H)-carboxamide 2,2,2-trifluoroacetate]  290 nM
21. O=C(NC1CCCC1)N1CC=C(c2c[nH]c3ncc(-c4ccc(OCCCN5CCOCC5)cc4)cc23)CC1 [Example 70, N-cyclopentyl-4-(5-(4-(3-morpholinopropoxy)phenyl)-1H-pyrrolo[2,3-b]pyridin-3-yl)-5,6-dihydropyridine-1(2H)-carboxamide]  400 nM
22. O=C(NCc1ccco1)c1cccc(-c2cnc3[nH]cc(C4=CCN(C(=O)NC5CCCC5)CC4)c3c2)c1 [Example 67, N-cyclopentyl-4-(5-(3-((furan-2-ylmethyl)carbamoyl)phenyl)-1H-pyrrolo[2,3-b]pyridin-3-yl)-5,6-dihydropyridine-1(2H)-carboxamide]  410 nM
23. CC1=C(c2c[nH]c3ncc(-c4ccc(S(C)(=O)=O)cc4)cc23)CCN(C(=O)NC2CCCC2)C1 [Example 130, N-cyclopentyl-3-methyl-4-(5-(4-(methylsulfonyl)phenyl)-1H-pyrrolo[2,3-b]pyridin-3-yl)-5,6-dihydropyridine-1(2H)-carboxamide]  550 nM
24. O=C(NC1CCCC1)N1CC=C(c2c[nH]c3ncc(-c4csc(CN5CCOCC5)c4)cc23)CC1 [Example 73, N-cyclopentyl-4-(5-(5-(morpholinomethyl)thiophen-3-yl)-1H-pyrrolo[2,3-b]pyridin-3-yl)-5,6-dihydropyridine-1(2H)-carboxamide]  620 nM
25. CCOC(=O)N1CC=C(c2c[nH]c3ncccc23)CC1 [Example 135, Ethyl 4-(1H-pyrrolo[2,3-b]pyridin-3-yl)-5,6-dihydropyridine-1(2H)-carboxylate]  1100 nM
26. CC(=O)Nc1ccc(N)c(-c2cnc3[nH]cc(C4=CCN(C(=O)NC5CCCC5)CC4)c3c2)c1 [Example 65, 4-(5-(5-Acetamido-2-aminophenyl)-1H-pyrrolo[2,3-b]pyridin-3-yl)-N-cyclopentyl-5,6-dihydropyridine-1(2H)-carboxamide]  1900 nM
